# Entries after “also recorded” stand apart in the source; their conditions may differ.
# Assays:
# [1] = target: T1, beta-amyloid soluble oligomers (Homo sapiens, UniProt P05067); assay: Ex vivo fluorescent binding assay, pre-formed soluble oligomers on naive rat brain sections; conditions: 50 μM probe, naive rat brain section, fluorescence microscopy
# T1 construct: 1 mg of human beta-amyloid 1-42 (H-5642, Bachem); purchased Bachem H-5642; host or cells: synthetic peptide
# Procedure: A. 1 mg of human beta-amyloid 1-42 (H-5642, Bachem) and 500 uL of 1,1,1,3,3,3 hexafluoro-2-propanol (HFIP) (Aldrich) were chilled in separate bottles on ice for 30 mins. Cold beta-amyloid 1-42 was solubilized with cold HFIP. The mixture was incubated for 1 hr at room temperature until it turned clear. The resulting solution was then dried to a film under vacuum. The film was dissolved again in cold HFIP and incubated another 1 hr at room temperature. The resulting solution was separated into aliquots in several microcentrifuge tubes. HFIP was removed under vacuum, and the films were stored at −20° C. until use. […]
# (§1) A 1/100th dilution of the secondary antibody Alexa Fluor 594-goat anti-mouse IgG (Molecular Probes) in PBS was applied onto the slides, and incubated at room temperature for 1.5 hours. […] Microscopic examination and imaging was performed using a Leica wide-field fluorescence microscope using filter cube A (band pass 340-380 nm with a 400 nm dichroic mirror and a long pass 400 nm suppression filter) for 49b, cube E4 (band pass 436 nm with 455 dichroic mirror and a long pass 470 nm suppression filter) for Thioflavin T, and TX2 (band pass 520-600 nm with 595 nm dichroic mirror and 645/75 band pass suppression filter) for 6E10 immunostaining. […]
# beta-amyloid fibrils = target: T2, beta-amyloid fibrils (Homo sapiens, UniProt P05067); assay: Ex vivo fluorescent binding assay, pre-formed fibrils on naive rat brain sections; conditions: 50 μM probe, naive rat brain section, fluorescence microscopy
# T2 construct: Lyophilized human beta-amyloid 1-40 peptide (Catalog number H-1194, Bachem); purchased Bachem H-1194; host or cells: synthetic peptide
# T2 sequence (P05067 672-711 limits assumed): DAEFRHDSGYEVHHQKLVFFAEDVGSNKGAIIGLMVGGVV
# Procedure: B. Insoluble A-beta (1-40) fibril formation: Lyophilized human beta-amyloid 1-40 peptide (Catalog number H-1194, Bachem) was solubilized with HFIP to produce a dry clear film following the process described above for beta-amyloid 1-42. The clear film of beta-amyloid 1-40 was diluted with distilled water to achieve a 6 mg/mL concentration. […] The clear solution was diluted to 1 mg/mL with PBS, pH 7.4 to obtain a final concentration of 1 mg/mL beta-amyloid 1-40, and then incubated at 37° C. on an orbital shaker at 200 RPM for 4 days. A cloudy solution was produced, and the fibril production was confirmed by measuring changes in fluorescence of Thioflavin T, as well as by atomic force microscopy and transmission electron microscopy. […]
# as §1
# [2] = target: T3, beta-amyloid 1-40 (20% biotin) fibrils (Homo sapiens, UniProt P05067); assay: Scintillation proximity assay (SPA), direct/saturation binding of tritium labeled probe to fibrils; conditions: immobilized fibrils, identical conditions
# T3 construct: purchased Bachem H-1194; biotinylated H-5914; host or cells: synthetic peptide
# T3 sequence (P05067 672-711 limits assumed): as above
# Procedure: B. Insoluble A-beta (1-40) fibril formation: Lyophilized human beta-amyloid 1-40 peptide (Catalog number H-1194, Bachem) was solubilized with HFIP to produce a dry clear film following the process described above for beta-amyloid 1-42. The clear film of beta-amyloid 1-40 was diluted with distilled water to achieve a 6 mg/mL concentration. […] The clear solution was diluted to 1 mg/mL with PBS, pH 7.4 to obtain a final concentration of 1 mg/mL beta-amyloid 1-40, and then incubated at 37° C. on an orbital shaker at 200 RPM for 4 days. A cloudy solution was produced, and the fibril production was confirmed by measuring changes in fluorescence of Thioflavin T, as well as by atomic force microscopy and transmission electron microscopy. Fibrils were used immediately after their production was confirmed.
# For SPA and atomic force microscopy (AFM) experiments, preparations of soluble oligomers and fibrils contained 20% biotinylated beta-amyloid 1-42 and 1-40, respectively (H-5642, H-5914, Bachem). […]
# For the saturation-binding assay, isotopic dilution of radiolabeled 49b with unlabeled 49b was performed. ^3H-49b was added to 500 uM of unlabeled 49b to a final concentration of 50 μCi/mL ^3H-49b. […] Assays were incubated overnight and counted the following morning. […]
# T1 sequence (P05067 672-713 limits assumed): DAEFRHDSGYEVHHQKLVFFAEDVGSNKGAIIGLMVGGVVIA
compound,measurement,setting,value
"O=Cc1ccc(-c2oc3ccccc3c2CO)o1 [Compound 49b, 2-(2-formyl-5-furanyl)-3-hydroxymethyl benzofuran]",staining of immobilized oligomers,[1],clear staining of oligomers with low background
same,staining of immobilized fibrils,beta-amyloid fibrils,No staining was observed
same,affinity to fibrils,[2],no measurable affinity; also recorded: No demonstrable affinity

# Source: US7727511B2, “Agents for imaging soluble a-beta” (priority 2003, dated 2010)
